Broadly, the IC50 is the concentration needed to halve the response being measured. Broadly, the inhibition is how much of the control response was suppressed.

Here are results for 17 compounds from patent US20120178766A1, “FUROPYRIMIDINEDIONE DERIVATIVES AS TRPAI MODULATORS” (priority 2009, published 2012).

Test [1] has as its target T1, human TRPA1 (Homo sapiens, UniProt O75762).
T1 construct: expressed in transfected cells; host or cells: CHO cells (G-418 selection)
Nature of the test: 45Calcium uptake assay: inhibition of AITC induced cellular uptake of radioactive calcium, human TRPA1 expressing CHO cells. The class given is cell-based. The following applies: AITC 30 μM; for inhibition at 1 µM: 1.0 μM compound, read-out: human TRPA1 Percentage inhibition at 1.0 μM; for inhibition at 10 µM: 10.0 μM compound, read-out: human TRPA1 Percentage inhibition at 10.0 μM. The text has this: The illustrative examples of the present invention are screened for TRPA1 activity according to a modified procedure described in (a) Tóth, A. et al. Life Sciences, 2003, 73, 487-498. (b) McNamara C, R. et al, Proc. Natl. Acad. Sci. U.S.A., 2007, 104, 13525-13530. The screening of the compounds can be carried out by other methods and procedures known to persons skilled in the art.
(§1) Screening for TRPA1 Antagonist Using the ^45Calcium Uptake Assay:
(§2) The inhibition of TRPA1 receptor activation was measured as inhibition of allyl isothiocyanate (AITC) induced cellular uptake of radioactive calcium.
Test compounds were dissolved in 100% DMSO to prepare 10 mM stock and then diluted using plain medium with 0.1% BSA and 1.8 mM CaCl2 to get the desired concentration. The final concentration of DMSO in the reaction was 0.5% (v/v). Human TRPA1 expressing CHO cells were grown in F-12 DMEM medium with 10% FBS, 1% penicillin-streptomycin solution, and 400 μg/ml of G-418. Rat TRPA1 expressing CHO cells were grown in F-12 DMEM medium with 10% FBS, 1% penicillin-streptomycin solution, and 400 μg/ml of Zeocin. Cells were seeded 24 h prior to the assay in 96 well plates so as to get ˜50,000 cells per well on the day of experiment. Cells were treated with the test compounds for 10 minutes followed by the addition of AITC at a final concentration of 30 μM (for human TRPA1) and/or 10 μM (for rat TRPA1) and 5 μCi/ml ^45Ca^+2 for 3 minutes. Cells were washed and lysed using a buffer containing 1% Triton X-100, 0.1% deoxycholate and 0.1% SDS. Radioactivity in the lysate was measured in a Packard TopCount after addition of liquid scintillant. (Toth et al, Life Sciences (2003) 73, 487-498; McNamara C R et al, Proceedings of the National Academy of Sciences, (2007) 104, 13525-13530).
(§3) Concentration response curves were plotted as a % of maximal response obtained in the absence of test antagonist. IC50 values can be calculated from concentration response curve by nonlinear regression analysis using GraphPad PRISM software.

The target of test [2] is T2, rat TRPA1 (Rattus norvegicus, UniProt Q6RI86).
T2 construct: expressed in transfected cells; host or cells: CHO cells (Zeocin selection)
T2 sequence (Q6RI86 whole entry): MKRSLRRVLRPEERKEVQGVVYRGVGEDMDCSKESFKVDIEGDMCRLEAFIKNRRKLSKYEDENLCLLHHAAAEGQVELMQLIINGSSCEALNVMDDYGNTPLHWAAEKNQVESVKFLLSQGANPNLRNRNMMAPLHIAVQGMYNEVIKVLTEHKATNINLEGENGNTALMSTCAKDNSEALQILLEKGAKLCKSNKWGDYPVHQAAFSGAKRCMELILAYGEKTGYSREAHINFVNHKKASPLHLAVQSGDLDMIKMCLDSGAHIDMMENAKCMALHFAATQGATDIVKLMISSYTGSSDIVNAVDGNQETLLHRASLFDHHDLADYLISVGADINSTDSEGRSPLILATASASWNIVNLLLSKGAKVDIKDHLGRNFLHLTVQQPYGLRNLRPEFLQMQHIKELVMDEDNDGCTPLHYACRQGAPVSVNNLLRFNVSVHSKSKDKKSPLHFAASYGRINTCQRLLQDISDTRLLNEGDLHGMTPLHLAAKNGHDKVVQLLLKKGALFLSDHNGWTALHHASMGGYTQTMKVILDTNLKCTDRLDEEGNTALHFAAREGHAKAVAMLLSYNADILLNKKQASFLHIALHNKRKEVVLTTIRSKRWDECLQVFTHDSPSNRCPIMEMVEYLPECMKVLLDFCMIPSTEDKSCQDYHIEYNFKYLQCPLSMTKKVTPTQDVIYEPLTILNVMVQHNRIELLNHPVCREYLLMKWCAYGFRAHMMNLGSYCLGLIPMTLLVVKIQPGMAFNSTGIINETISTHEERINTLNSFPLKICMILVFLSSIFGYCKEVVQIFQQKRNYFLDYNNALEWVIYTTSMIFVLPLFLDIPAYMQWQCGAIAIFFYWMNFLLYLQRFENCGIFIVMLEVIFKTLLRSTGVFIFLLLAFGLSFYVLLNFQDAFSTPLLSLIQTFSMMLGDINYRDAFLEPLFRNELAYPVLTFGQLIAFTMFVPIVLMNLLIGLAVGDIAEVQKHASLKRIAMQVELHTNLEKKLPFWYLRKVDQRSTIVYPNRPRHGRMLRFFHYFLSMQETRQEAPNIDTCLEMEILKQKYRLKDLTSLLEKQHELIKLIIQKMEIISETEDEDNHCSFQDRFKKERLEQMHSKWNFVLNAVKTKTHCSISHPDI
Nature of the test: 45Calcium uptake assay: inhibition of AITC induced cellular uptake of radioactive calcium, rat TRPA1 expressing CHO cells. The following applies: AITC 10 μM; for inhibition at 10 µM: 10.0 μM compound, read-out: rat TRPA1 Percentage inhibition at 10.0 μM; for inhibition at 1 µM: read-out: rat TRPA1 Percentage inhibition; for IC50: class symbols. Format: cell-based. How it is done:
as §1, §2
Test compounds were dissolved in 100% DMSO to prepare 10 mM stock and then diluted using plain medium with 0.1% BSA and 1.8 mM CaCl2 to get the desired concentration. The final concentration of DMSO in the reaction was 0.5% (v/v). […] Rat TRPA1 expressing CHO cells were grown in F-12 DMEM medium with 10% FBS, 1% penicillin-streptomycin solution, and 400 μg/ml of Zeocin. […] Cells were treated with the test compounds for 10 minutes followed by the addition of AITC at a final concentration of 30 μM (for human TRPA1) and/or 10 μM (for rat TRPA1) and 5 μCi/ml ^45Ca^+2 for 3 minutes. Cells were washed and lysed using a buffer containing 1% Triton X-100, 0.1% deoxycholate and 0.1% SDS. Radioactivity in the lysate was measured in a Packard TopCount after addition of liquid scintillant.
as §3

T1 sequence (O75762 whole entry): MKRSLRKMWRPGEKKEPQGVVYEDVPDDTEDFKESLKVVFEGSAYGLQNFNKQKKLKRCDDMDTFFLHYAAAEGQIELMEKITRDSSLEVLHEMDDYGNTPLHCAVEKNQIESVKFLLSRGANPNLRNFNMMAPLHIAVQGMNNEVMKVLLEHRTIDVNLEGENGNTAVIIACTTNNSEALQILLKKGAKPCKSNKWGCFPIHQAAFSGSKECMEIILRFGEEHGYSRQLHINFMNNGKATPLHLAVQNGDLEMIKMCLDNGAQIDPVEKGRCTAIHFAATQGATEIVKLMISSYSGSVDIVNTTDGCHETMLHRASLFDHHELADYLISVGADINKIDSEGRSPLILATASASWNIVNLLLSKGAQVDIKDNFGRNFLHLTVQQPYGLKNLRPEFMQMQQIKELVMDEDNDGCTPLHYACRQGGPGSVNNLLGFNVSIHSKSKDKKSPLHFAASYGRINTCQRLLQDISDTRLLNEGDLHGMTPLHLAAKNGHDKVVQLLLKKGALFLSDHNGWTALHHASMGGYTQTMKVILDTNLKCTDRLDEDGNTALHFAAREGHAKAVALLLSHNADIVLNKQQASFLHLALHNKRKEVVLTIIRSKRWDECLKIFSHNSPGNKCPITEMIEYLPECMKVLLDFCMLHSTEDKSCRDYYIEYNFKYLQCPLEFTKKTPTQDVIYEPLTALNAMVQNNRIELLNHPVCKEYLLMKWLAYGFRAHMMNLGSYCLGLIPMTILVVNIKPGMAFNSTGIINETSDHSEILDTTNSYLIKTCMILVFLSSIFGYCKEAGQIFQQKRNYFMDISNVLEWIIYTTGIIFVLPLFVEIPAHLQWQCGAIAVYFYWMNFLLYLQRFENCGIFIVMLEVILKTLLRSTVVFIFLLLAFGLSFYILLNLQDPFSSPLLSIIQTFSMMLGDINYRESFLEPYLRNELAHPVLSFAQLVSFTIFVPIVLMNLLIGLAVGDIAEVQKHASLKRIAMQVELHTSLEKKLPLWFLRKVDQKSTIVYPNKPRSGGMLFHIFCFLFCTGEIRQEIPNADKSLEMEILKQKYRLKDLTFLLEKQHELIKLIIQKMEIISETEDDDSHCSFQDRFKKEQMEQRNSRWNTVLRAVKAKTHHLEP

Consider `Cn1c(=O)c2c(CC(=O)Nc3ccc(Oc4ccc(C(F)(F)F)cc4)cc3)coc2n(C)c1=O` [Example 1, N1-[4-(4-Trifluoromethylphenoxy)phenyl]-2-(1,3-dimethyl-2,4-dioxo-1,2,3,4-tetrahydrofuro[2,3-d]pyrimidin-5-yl)acetamide], for which the IC50 in test [1] (class symbols) was > 100 nM. Moreover, in test [2], the inhibition at 10 µM came out at 100% and the inhibition at 1 µM is 96.7%.

Take `Cn1c(=O)c2c(CC(=O)NCCc3ccc(Cl)cc3Cl)coc2n(C)c1=O` [Example 2, N1-[2-(2,4-Dichlorophenyl)ethyl]-2-(1,3-dimethyl-2,4-dioxo-1,2,3,4-tetrahydrofuro[2,3-d]pyrimidin-5-yl)acetamide]: in test [1], the inhibition at 1 µM was found to be 17.7% and the inhibition at 10 µM amounted to 28.4%.

`Cn1c(=O)c2c(CC(=O)Nc3nc(C(F)(F)F)cs3)coc2n(C)c1=O` [Example 3, N1-[4-(Trifluoromethyl)-1,3-thiazol-2-yl]-2-(1,3-Dimethyl-2,4-dioxo-1,2,3,4-tetrahydrofuro[2,3-d]pyrimidin-5-yl)acetamide]: in test [1], the inhibition at 1 µM is 6.44% and the inhibition at 10 µM came out at 45.8%.

Turning to `Cn1c(=O)c2c(CC(=O)Nc3nc4c(F)cc(F)cc4s3)coc2n(C)c1=O` [Example 4, N-(4,6-Difluoro-1,3-benzothiazol-2-yl)-2-(1,3-dimethyl-2,4-dioxo-1,2,3,4-tetrahydrofuro[2,3-d]pyrimidin-5-yl)acetamide], in test [1], the inhibition at 1 µM turned out to be 14.5% and the inhibition at 10 µM was 57.3%.

Consider `CC(C)Cc1ccc(-c2csc(NC(=O)Cc3coc4c3c(=O)n(C)c(=O)n4C)n2)cc1` [Example 5, N1-[4-(4-Isobutylphenyl)-1,3-thiazol-2-yl]-2-(1,3-dimethyl-2,4-dioxo-1,2,3,4-tetrahydrofuro[2,3-d]pyrimidin-5-yl)acetamide], for which, in test [1], the inhibition at 1 µM was found to be 27% and the inhibition at 10 µM was 99.8%.

As to `Cn1c(=O)c2c(CC(=O)Nc3nc(-c4ccc(C(F)(F)F)cc4)cs3)coc2n(C)c1=O` [Example 6, N1-{4-[4-(Trifluoromethyl)phenyl]-1,3-thiazol-2-yl}-2-(1,3-dimethyl-2,4-dioxo-1,2,3,4-tetrahydrofuro[2,3-d]pyrimidin-5-yl)acetamide], in test [1], the inhibition at 1 µM was found to be 100% and the inhibition at 10 µM was 99.6%. Also, the IC50 in test [1] (class symbols) is < 50 nM.

Regarding `Cn1c(=O)c2c(CC(=O)Nc3nc(-c4cccc(C(F)(F)F)c4)cs3)coc2n(C)c1=O` [Example 7, N1-{4-[3-(Trifluoromethyl)phenyl]-1,3-thiazol-2-yl}-2-(1,3-dimethyl-2,4-dioxo-1,2,3,4-tetrahydrofuro[2,3-d]pyrimidin-5-yl)acetamide], in test [1], the inhibition at 1 µM stood at 98.8% and the inhibition at 10 µM was found to be 99.8%. In test [1] (class symbols), the IC50 was < 50 nM.

Consider `Cn1c(=O)c2c(CC(=O)Nc3nc(-c4ccc(OC(F)(F)F)cc4)cs3)coc2n(C)c1=O` [Example 8, N1-[4-(4-Trifluorormethoxyphenyl)-1,3-thiazol-2-yl]-2-(1,3-dimethyl-2,4-dioxo-1,2,3,4-tetrahydrofuro[2,3-d]pyrimidin-5-yl)acetamide], for which the inhibition at 1 µM amounted to 93.2% in test [1] and 100% in test [2]. Moreover, the inhibition at 10 µM in test [1] came out at 98.8%; in test [2], 100%. Besides, the half-maximal inhibitory concentration (IC50) in test [1] (class symbols) and in test [2] was < 50 nM in each case.

Regarding `Cn1c(=O)c2c(CC(=O)Nc3nc(-c4cccc(OC(F)(F)F)c4)cs3)coc2n(C)c1=O` [Example 9, N1-[4-(3-Trifluorormethoxyphenyl)-1,3-thiazol-2-yl]-2-(1,3-dimethyl-2,4-dioxo-1,2,3,4-tetrahydrofuro[2,3-d]pyrimidin-5-yl)acetamide], in test [1], the inhibition at 1 µM is 99.3% and the inhibition at 10 µM was 100%. Moreover, the IC50 in test [1] (class symbols) is < 50 nM.

With `Cn1c(=O)c2c(CC(=O)Nc3nc(-c4ccc(F)c(Br)c4)cs3)coc2n(C)c1=O` [Example 10, N1-[4-(3-Bromo-4-fluorophenyl)-1,3-thiazol-2-yl]-2-(1,3-dimethyl-2,4-dioxo-1,2,3,4-tetrahydrofuro[2,3-d]pyrimidin-5-yl)acetamide], in test [1], the inhibition at 1 µM was found to be 98.5% and the inhibition at 10 µM was found to be 97.7%. Further, the IC50 in test [1] (class symbols) was < 50 nM. In test [2], the inhibition at 10 µM turned out to be 100%, the inhibition at 1 µM came to 97.5% and the IC50 lay in the range of 50 to 100 nM.

For the compound `Cn1c(=O)c2c(CC(=O)Nc3nc(-c4ccc(F)c(F)c4)cs3)coc2n(C)c1=O` [Example 11, N1-[4-(3,4-Difluorophenyl)-1,3-thiazol-2-yl]-2-(1,3-dimethyl-2,4-dioxo-1,2,3,4-tetrahydrofuro[2,3-d]pyrimidin-5-yl)acetamide], in test [1], the inhibition at 1 µM came to 98.8% and the inhibition at 10 µM was determined as 99.4%. The IC50 in test [1] (class symbols) fell in the range of 50 to 100 nM.

As for `Cn1c(=O)c2c(CC(=O)Nc3nc(-c4ccc(F)cc4F)cs3)coc2n(C)c1=O` [Example 12, N1-[4-(2,4-Difluorophenyl)-1,3-thiazol-2-yl]-2-(1,3-dimethyl-2,4-dioxo-1,2,3,4-tetrahydrofuro[2,3-d]pyrimidin-5-yl)acetamide], in test [1], the inhibition at 1 µM came out at 97.9% and the inhibition at 10 µM came to 98.4%. Further, the IC50 in test [1] (class symbols) is > 100 nM.

For `Cn1c(=O)c2c(CC(=O)Nc3nc(-c4ccc(OC(F)F)c(Br)c4)cs3)coc2n(C)c1=O` [Example 25, N1-[4-(3-Bromo-4-difluoromethoxyphenyl)-1,3-thiazol-2-yl]-2-(1,3-dimethyl-2,4-dioxo-1,2,3,4-tetrahydrofuro[2,3-d]pyrimidin-5-yl)acetamide], in test [1], the inhibition at 1 µM is 99.3% and the inhibition at 10 µM amounted to 99.8%. For the same compound, the IC50 in test [1] (class symbols) was < 50 nM.

On to `CC(C)COc1ccc(-c2csc(NC(=O)Cc3coc4c3c(=O)n(C)c(=O)n4C)n2)cc1Br` [Example 29, N1-[4-(3-Bromo-4-isobutoxyphenyl)-1,3-thiazol-2-yl]-2-(1,3-dimethyl-2,4-dioxo-1,2,3,4-tetrahydrofuro[2,3-d]pyrimidin-5-yl)acetamide], for which, in test [1], the inhibition at 1 µM stood at 98.6% and the inhibition at 10 µM was 99.8%. Further, the half-inhibitory concentration (IC50) in test [1] (class symbols) was > 100 nM.

`Cn1c(=O)c2c(CC(=O)Nc3nc(-c4cc(F)c(F)cc4F)cs3)coc2n(C)c1=O` [Example 33, N1-[4-(2,4,5,-Trifluorophenyl)-1,3-thiazol-2-yl]-2-(1,3-dimethyl-2,4-dioxo-1,2,3,4-tetrahydrofuro[2,3-d]pyrimidin-5-yl)acetamide]: in test [1], the inhibition at 1 µM amounted to 97.9% and the inhibition at 10 µM is 98.1%. For the same compound, the IC50 in test [1] (class symbols) was < 50 nM.

Regarding `CC(C)CCOc1c(F)cc(-c2csc(NC(=O)Cc3coc4c3c(=O)n(C)c(=O)n4C)n2)cc1F` [Example 45, N1-{4-[3,5-Difluoro-4-(3-methylbutoxy)phenyl]-1,3-thiazol-2-yl}-2-(1,3-dimethyl-2,4-dioxo-1,2,3,4-tetrahydrofuro[2,3-d]pyrimidin-5-yl)acetamide], in test [1], the inhibition at 1 µM came out at 90.7% and the inhibition at 10 µM turned out to be 98.1%. In test [1] (class symbols), the IC50 is < 50 nM.

`Cc1oc2c(c1CC(=O)Nc1nc(-c3cc(F)c(Cl)cc3Cl)cs1)c(=O)n(C)c(=O)n2C` [Example 79, N1-[4-(2,4-Dichloro-5-fluorophenyl)-1,3-thiazol-2-yl]-2-(1,3,6-trimethyl-2,4-dioxo-1,2,3,4-tetrahydrofuro[2,3-d]pyrimidin-5-yl)acetamide]: the concentration for half-maximal inhibition (IC50) in test [1] (numeric values) is 247 nM.
